Tested on: male ICR mouse
Experiment: Acetic acid-induced writhing method
Type: in vivo
Conditions: intraperitoneal, 30 minutes before 0.8% acetic acid
Method: The effect of the test compound was considered using male ICR mouse (4-week-old) according to a writhing test method induced by acetic acid. For intraperitoneal administration of a test compound and a standard product, the test compound was dissolved in a saline containing 5% DMSO and 5% Tween 80 to a suitable concentration. The test compound was administered 30 minutes before intraperitoneal administration of 0.8% acetic acid solution (diluted with saline), and the number of writhing was measured for 15 minutes from 5 minutes after acetic acid administration. A saline containing 5% DMSO and 5% Tween 80 was intraperitoneally administered to all control groups (vehicle administration group). Using indomethacin as a standard product, the same test was performed.
The number of writhing by each test compound is shown in FIG. 1, and the number of writhings by indomethacin is shown in FIG. 2.

Row | SMILES | Inhibition ratio (%) of number of writhing (dose 10 mg/kg) [%] | Inhibition ratio (%) of number of writhing (dose 20 mg/kg) [%]
1 | COc1ccc2c(c1)c(CC(=O)O)c(C)n2C(=O)c1ccc(Cl)cc1 [indomethacin, reference compound] | 31 | 
2 | CCN(CCCC(=O)Nc1ccccc1Br)c1cccc(C)c1 [Example 52, N-(2-bromophenyl)-4-(ethyl-3-methylanilino)butanamide] | 19 | 67

Reference: patent US7572815B2, “Amide derivative” (Ajinomoto Co., Inc., priority 2003, dated 2009)
